Data as given in US6984656B2, “Core modified porphyrins” (priority 2001, dated 2006).

Assays:
[1] = Quantum yield for the generation of singlet oxygen; assay type: physicochemical; conditions: aqueous solution
[2] = system: R3230AC rat mammary adenocarcinoma cells; assay: Phototoxicity toward R3230AC cells in culture; assay type: cell-based; conditions: 10 μM, 24 h; 570-800 nm light, 0.9 J cm^−2; 24 h post-irradiation
Protocol: Similar results were obtained with R3230AC rat mammary adenocarcinoma cells in vitro. […] Light-treated cells and dark controls were incubated for 24 h and cell survival was determined. The surviving fraction, 24 h post-irradiation, is shown graphically in FIG. 4c.

[3] = Rate of photobleaching in phosphate-buffered saline; assay type: physicochemical; conditions: PBS; 570-750 nm light at 500 mW cm^−2; constant initial absorbance
Text: One limitation of PDT dosimetry is the rate of photobleaching of the photosensitizer, which can be problematic with Photofrin® and even more problematic with the bacteriochlorins and the chlorins (such as HPPH).

Colo-26 cells = assay: Dark and light-induced toxicity toward Colo-26 cells in culture; assay type: cell-based, murine
Protocol: In order to compare relative phototoxicity, the core-modified porphyrins of Table 1 were evaluated in culture for dark and light-induced toxicities toward Colo-26 cells, a murine colon carcinoma cell line.

MCF-7 cells = assay: Photosensitizer uptake in cultured MCF-7 cells by fluorescence; assay type: cell-based; conditions: 10 μM and 100 μM, 24 h
Protocol: To establish baseline fluorescence, control cells incubated with MEM not containing either photosensitizer were used. […] A time course to determine when the fluorescence approached its maximum was performed for DH-82 and Photofrin®.
To determine the final intracellular concentrations of each sensitizer, cells in 96-well plates were incubated with sensitizer for 24 h. Detection of fluorescence in sensitizer-treated cells was made directly in the wells of the 96-well plate using the appropriate excitation and emission wavelengths.
Photosensitizer uptake experiments are conducted with fluorescent sensitizers. First, cells will be removed from 100-mm dishes by trypsinization (see above) and seeded on 96-well plates at 5×10^4 cells/well in 200 μL of MEM. […] To establish baseline fluorescence, control cells incubated with MEM not containing any photosensitizer are used. […] Fluorescence of the cells is determined using a Spectramax Gemini spectrofluorimeter (Molecular Devices, Sunnyvale, Calif.). Sensitizers will be compared according to the rate at which the fluorescence approached its maximum final emission per 10^5 cells as well as by the final sensitizer concentrations in cells. The fluorescence values calculated for 10^5 cells will be compared to a standard curve of fluorescence obtained from known concentrations of each sensitizer.

[4] = Tissue distribution by fluorescence in tumor-bearing BALB/c mice
Protocol: At various times after sensitizer administration, animals were sacrificed and sensitizer levels determined by direct extraction. In tumor-bearing animals (BALB/c mice or female Fischer rats), the concentration of sensitizer was determined by fluorescence spectroscopy where possible. At various time points post-injection of 5 μmol/kg of sensitizer or 90% of the LD10 (whichever is smaller), tissues were removed, weighed, homogenized, and frozen in liquid nitrogen (3-5 animals per time point). The homogenate, after thawing, was taken up in Solvable and the emission from sensitizer was quantified in terms of ng of sensitizer/mg of protein. With non-fluorescent sensitizers, sensitizer content was quantified spectrophotometrically. Distribution ratios were expressed as the uptake or retention of sensitizer in tumor relative to various normal tissues. Intensified digital fluorescence microscopy and/or confocal microscopy on frozen sections of the tumors, which were prepared from samples specified for this purpose, enabled us to assess intratumor sensitizer distributions.

Colo-26 tumors = assay: PDT against implanted Colo-26 tumors in BALB/c mice; assay type: in vivo; conditions: 135 J cm^−2; DH-105 2.5, DH-82 0.13, MA-99 0.15 mg/kg, 694 nm 4 h post-injection; Photofrin® 2.5 mg/kg, 630 nm 24 h
Protocol: Core-modified porphyrin 6 gave a PDT response in vivo with 694-nm light in BALB/c mice bearing Colo-26 tumors. Animals treated with photosensitizer 6 at 3.25 mg (3.0 μmol)/kg and light required 10.3±0.8 d to reach 400-mm^3 tumor volume, which was more than double the time for control animals (4.3±1.0 d) receiving neither drug nor light (P <0.01).
The animals were irradiated 4 h post-injection with 135 J cm^−2 of 694-nm red light from a dye laser (75 mW cm^−2 for 30 min). […] For comparison purposes, BALB/C mice bearing Colo-26 tumors were given 2.5 mg (4.0 μmol)/kg of Photofrin® as a 5% aqueous dextrose solution and were irradiated 24 h later with 135 J cm^−2 of 630-nm laser light at a power of 75 mW cm^−2 for PDT with Photofrin®.
Animals initially were given i.v. (tail vein) injections of sensitizer at various concentrations (0.05to 5.0 μmol/kg). Mice were restrained at various times thereafter without anesthesia in specially designed holders. Fischer 344 female rats were chemically restrained at various times thereafter. In both models, tumors or normal back skin were exposed to light from a xenon arc lamp with appropriate filters or to a dye laser tuned to the absorption maximum determined by in vivo reflectance measurements. Power density of delivered light typically fell in the range of 10-200 mW cm^−2 evenly distributed to a spot size of roughly 1.5 cm and measured by a radiometer. Several dose rates were explored to examine role/limitation of available oxygen on the photodynamic process. Intratumor temperatures were measured with an Omega HYP-O microthermocouple and, when necessary, a stream of nitrogen gas was used to keep intratumor temperatures below 37° C. Animals were examined and measured daily for the first 14 days post treatment and every other day thereafter until the tumors reached 400 mm^3 in mice or until the tumors double in size for Fischer 344 female rats or for 90 days. Tumor size were measured in two dimensions with a caliper. Time to 400 mm^3 or volume doubling times of tumors from control and PDT-treated groups (8-12 animals per group) were compared statistically using the SAS statistical program (SAS, Inc., Cary, N.C.). A P-value of <0.05 is considered significant. The degree of damage to the normal skin within the irradiation field also were noted. Disappearance of tumor with minimal damage to normal skin is the most desirable response. Animals are considered cured if no tumor regrowth occurs by 90 days. In all studies, three control groups were utilized in addition to the treatment group receiving both sensitizer and light: 1) a complete control receiving neither drug nor light, 2) a group receiving sensitizer only, and 3) a group receiving light only. Representative animals from each of the treatment groups were processed for histology immediately, one day, or two weeks after irradiation. Step sections through the tumor were used to define the boundaries of tumor cell damage and death as a function of distance from the skin surface.

[5] = BALB/c mice with Colo-26 tumors, DH-82 5 mg/kg, MA-99 2.5 mg/kg

O=C([O-])COc1ccc(-c2c3nc(c(-c4ccc(F)cc4)c4ccc(s4)c(-c4ccc(F)cc4)c4nc(c(-c5ccc(OCC(=O)[O-])cc5)c5ccc2s5)C=C4)C=C3)cc1.[Na+].[Na+] [MA-99]
quantum yield for the generation of singlet oxygen φ(^1O2) [1]: 0.71 ± 0.02
phototoxicity relative to Photofrin® toward R3230AC cells (surviving fraction, FIG. 4c) [2]: more phototoxic than Photofrin®
rate of photobleaching (kbleach) [3]: 0.16 ± 0.02 × 10^4 s^−1
EC50 (Colo-26 cells; 4 J cm^−2 of 590-800 nm light, read-out: EC50 against Colo-26 cells): 430 nM
phototoxicity relative to Photofrin® with laser excitation (FIG. 4a) (Colo-26 cells; Colo-26 cells, 694 nm dye laser for DH-82 and MA-99, 630 nm dye laser for Photofrin®): significantly greater phototoxicity at lower concentrations than Photofrin®
final intracellular concentration relative to that for DH-82 (MCF-7 cells): approximately 80%
concentration in tumor 24 h post-injection ([4]; 2.5 mg (3.2 μmol)/kg of MA-99, Colo-26 tumors): 0.65±0.10 μg/mg of protein
increase in photosensitizer uptake in tumor relative to compound 6 ([4]; 24 h post-injection): greater than twenty-fold increase
concentration in skin at 1 h post-injection [4, 5]: 0.09±0.04 μg/mg of protein
concentration in skin at 24 h post-injection [4, 5]: 0.01±0.01 μg/mg of protein
concentration in tumor versus other tissues at 24 h post-injection ([4]; liver, kidney, lung, heart, spleen, muscle, skin): higher in the tumor than in the other tissues examined
cures (no tumor regrowth 90 days post-treatment) (Colo-26 tumors): five cures
mean time to 400 mm^3 of the animals not cured (Colo-26 tumors): 23 ± 7 days
